From PubChem BioAssay AID1745844 (Carcinogenic Potency Database (CPDB), 2022)
Where “and” joins values, the source holds several entries; their conditions need not be identical. Equal values may be shown once. Calls of active or inactive are those of the source. How the calls were made is not given here.

Test system: rodent lifetime carcinogenesis bioassay, tumor incidence TD50
Experiment: chronic cancer bioassays in animals – CPDB, compiled studies (AID 1745844)

CCC1CO1 (stereo not given)
TD50 (mouse, strain B6C3F1, females, inhaled, site: any site (literature study), lesion: several types, types named in the paper, dosed 102 weeks, study length 104 weeks): 141 mg/kg/day (inactive) | TD50 (mouse, strain B6C3F1, females, inhaled, site: liver, lesion: hepatocellular adenoma + hepatocellular carcinoma + neoplastic nodule, dosed 102 weeks, study length 104 weeks): 445 mg/kg/day | TD50 (mouse, strain B6C3F1, females, inhaled, site: lung, lesion: alveolar/bronchiolar adenoma + alveolar/bronchiolar carcinoma, dosed 102 weeks, study length 104 weeks): 834 mg/kg/day | TD50 (mouse, strain B6C3F1, males, inhaled, site: any site (literature study), lesion: several types, types named in the paper, dosed 102 weeks, study length 104 weeks): 2470 mg/kg/day (inactive) | TD50 (mouse, strain B6C3F1, males, inhaled, site: liver, lesion: hepatocellular adenoma + hepatocellular carcinoma + neoplastic nodule, dosed 102 weeks, study length 104 weeks): 8600 mg/kg/day | TD50 (rat, strain Fischer 344, females, inhaled, site: any site (literature study), lesion: several types, types named in the paper, dosed 103 weeks, study length 105 weeks): 78 mg/kg/day | TD50 (rat, strain Fischer 344, females, inhaled, site: nasal cavity, lesion: papillary adenoma, dosed 103 weeks, study length 105 weeks): 1730 mg/kg/day | TD50 (rat, strain Fischer 344, females, inhaled, site: ovary, lesion: granulosa-cell carcinoma + granulosa-cell tumor + thecoma, dosed 103 weeks, study length 105 weeks): 545 mg/kg/day | TD50 (rat, strain Fischer 344, females, inhaled, site: pituitary gland, anterior, lesion: adenoma, NOS, dosed 103 weeks, study length 105 weeks): 83.8 mg/kg/day | TD50 (rat, strain Fischer 344, females, inhaled, site: thyroid gland, lesion: follicular-cell adenoma + follicular-cell carcinoma, dosed 103 weeks, study length 105 weeks): 509 mg/kg/day | TD50 (rat, strain Fischer 344, males, inhaled, site: any site (literature study), lesion: several types, types named in the paper, dosed 103 weeks, study length 105 weeks): 79.6 mg/kg/day | TD50 (rat, strain Fischer 344, males, inhaled, site: liver, lesion: hepatocellular adenoma + hepatocellular carcinoma + neoplastic nodule, dosed 103 weeks, study length 105 weeks): 622 mg/kg/day | TD50 (rat, strain Fischer 344, males, inhaled, site: lung + nasal cavity, lesion: alveolar/bronchiolar adenoma + alveolar/bronchiolar carcinoma + papillary adenoma, dosed 103 weeks, study length 105 weeks): 106 mg/kg/day | TD50 (rat, strain Fischer 344, males, inhaled, site: lung, lesion: alveolar/bronchiolar adenoma + alveolar/bronchiolar carcinoma, dosed 103 weeks, study length 105 weeks): 220 mg/kg/day | TD50 (rat, strain Fischer 344, males, inhaled, site: lung, lesion: alveolar/bronchiolar carcinoma, dosed 103 weeks, study length 105 weeks): 314 mg/kg/day | TD50 (rat, strain Fischer 344, males, inhaled, site: multiple organs + spleen, lesion: mononuclear-cell leukemia, dosed 103 weeks, study length 105 weeks): 30.7 mg/kg/day | TD50 (rat, strain Fischer 344, males, inhaled, site: nasal cavity, lesion: papillary adenoma, dosed 103 weeks, study length 105 weeks): 220 mg/kg/day

Cc1cc2ncccc2c2nc(N)n(C)c12
TD50 (mouse, strain C57BL/6NCrj, females, in feed, site: cecum, lesion: adenocarcinoma, dosed 85 weeks, study length 85 weeks): 50 mg/kg/day | TD50 (mouse, strain C57BL/6NCrj, females, in feed, site: colon, lesion: adenocarcinoma, dosed 85 weeks, study length 85 weeks): 92.8 mg/kg/day | TD50 (mouse, strain C57BL/6NCrj, females, in feed, site: large intestine, lesion: adenocarcinoma, dosed 85 weeks, study length 85 weeks): 32.3 mg/kg/day | TD50 (mouse, strain C57BL/6NCrj, females, in feed, site: liver, lesion: fibrosarcoma, dosed 85 weeks, study length 85 weeks): 20.7 mg/kg/day | TD50 (mouse, strain C57BL/6NCrj, females, in feed, site: liver, lesion: hepatocellular adenoma, dosed 85 weeks, study length 85 weeks): 80 mg/kg/day | TD50 (mouse, strain C57BL/6NCrj, females, in feed, site: liver, lesion: hepatocellular carcinoma, dosed 85 weeks, study length 85 weeks): 62.1 mg/kg/day | TD50 (mouse, strain CDF1, females, in feed, site: forestomach, lesion: several types, types named in the paper, dosed 91 weeks, study length 91 weeks): 10.7 mg/kg/day | TD50 (mouse, strain CDF1, females, in feed, site: forestomach, lesion: squamous-cell carcinoma, dosed 91 weeks, study length 91 weeks): 24.5 mg/kg/day | TD50 (mouse, strain CDF1, females, in feed, site: liver, lesion: hepatocellular carcinoma, dosed 91 weeks, study length 91 weeks): 65.6 mg/kg/day | TD50 (mouse, strain CDF1, females, in feed, site: liver, lesion: several types, types named in the paper, dosed 91 weeks, study length 91 weeks): 27.1 mg/kg/day | TD50 (mouse, strain CDF1, females, in feed, site: lung, lesion: several types, types named in the paper, dosed 91 weeks, study length 91 weeks): 25.1 mg/kg/day (inactive) | TD50 (mouse, strain CDF1, males, in feed, site: forestomach, lesion: several types, types named in the paper, dosed 91 weeks, study length 91 weeks): 14.5 mg/kg/day | TD50 (mouse, strain CDF1, males, in feed, site: forestomach, lesion: squamous-cell carcinoma, dosed 91 weeks, study length 91 weeks): 22.4 mg/kg/day | TD50 (mouse, strain CDF1, males, in feed, site: lung, lesion: several types, types named in the paper, dosed 91 weeks, study length 91 weeks): 148 mg/kg/day (inactive)

Nc1c(F)c(N)c(F)c(F)c1F
TD50 (mouse, strain CD-1 HaM/ICR, females, in feed, site: liver, lesion: several types, types named in the paper, dosed 77 weeks, study length 94 weeks): 6500 mg/kg/day (inactive) | carcinogen call (mouse, strain CD-1 HaM/ICR, females, in feed, site: lung, lesion: several types, types named in the paper, dosed 77 weeks, study length 94 weeks): negative (inactive) | TD50 (mouse, strain CD-1 HaM/ICR, males, in feed, site: any site (literature study), lesion: several types, types named in the paper, dosed 77 weeks, study length 94 weeks): 331 mg/kg/day | TD50 (mouse, strain CD-1 HaM/ICR, males, in feed, site: liver, lesion: hepatoma, dosed 77 weeks, study length 94 weeks): 86.3 mg/kg/day and 109 mg/kg/day | TD50 (mouse, strain CD-1 HaM/ICR, males, in feed, site: liver, lesion: several types, types named in the paper, dosed 77 weeks, study length 94 weeks): 78.3 mg/kg/day | TD50 (mouse, strain CD-1 HaM/ICR, males, in feed, site: lung, lesion: several types, types named in the paper, dosed 77 weeks, study length 94 weeks): 1130 mg/kg/day (inactive) | TD50 (rat, strain Charles River CD (Sprague-Dawley), males, in feed, site: any site (literature study), lesion: several types, types named in the paper, dosed 77 weeks, study length 98 weeks): 14.6 mg/kg/day (inactive) | carcinogen call (rat, strain Charles River CD (Sprague-Dawley), males, in feed, site: liver, lesion: several types, types named in the paper, dosed 77 weeks, study length 98 weeks): negative (inactive)

Cc1cccc(C)c1
TD50 (mouse, strain B6C3F1, females, by gavage, site: liver, lesion: hepatocellular adenoma + hepatocellular carcinoma + neoplastic nodule, dosed 103 weeks, study length 104 weeks): 7040 mg/kg/day | TD50 (mouse, strain B6C3F1, females, by gavage, site: lung, lesion: alveolar/bronchiolar adenoma + alveolar/bronchiolar carcinoma, dosed 103 weeks, study length 104 weeks): 5130 mg/kg/day | TD50 (mouse, strain B6C3F1, females, by gavage, site: thyroid gland, lesion: follicular-cell adenoma, dosed 103 weeks, study length 104 weeks): 4790 mg/kg/day (inactive) | carcinogen call (mouse, strain B6C3F1, males, by gavage, site: any site (literature study), lesion: several types, types named in the paper, dosed 103 weeks, study length 104 weeks): negative (inactive) | TD50 (mouse, strain B6C3F1, males, by gavage, site: lung, lesion: alveolar/bronchiolar adenoma + alveolar/bronchiolar carcinoma, dosed 103 weeks, study length 104 weeks): 7600 mg/kg/day | TD50 (rat, strain Fischer 344, females, by gavage, site: any site (literature study), lesion: several types, types named in the paper, dosed 103 weeks, study length 104 weeks): 1930 mg/kg/day | TD50 (rat, strain Fischer 344, females, by gavage, site: liver, lesion: hepatocellular adenoma + hepatocellular carcinoma + neoplastic nodule, dosed 103 weeks, study length 104 weeks): 51300 mg/kg/day | TD50 (rat, strain Fischer 344, females, by gavage, site: mammary gland, lesion: adenoma, NOS, dosed 103 weeks, study length 104 weeks): 4110 mg/kg/day (inactive) | TD50 (rat, strain Fischer 344, males, by gavage, site: any site (literature study), lesion: several types, types named in the paper, dosed 103 weeks, study length 104 weeks): 700 mg/kg/day (inactive) | TD50 (rat, strain Sprague-Dawley, females, by gavage, site: all sites, lesion: lymphoma and leukemia, combined, dosed 104 weeks, study length 123 weeks): 4170 mg/kg/day | TD50 (rat, strain Sprague-Dawley, females, by gavage, site: all sites, lesion: lymphoma and leukemia, combined, dosed 104 weeks, study length 141 weeks): 5170 mg/kg/day | TD50 (rat, strain Sprague-Dawley, females, by gavage, site: any site (literature study), lesion: malignant tumor, dosed 104 weeks, study length 123 weeks): 1870 mg/kg/day | TD50 (rat, strain Sprague-Dawley, females, by gavage, site: any site (literature study), lesion: malignant tumor, dosed 104 weeks, study length 141 weeks): 524 mg/kg/day | TD50 (rat, strain Sprague-Dawley, females, by gavage, site: any site (literature study), lesion: several types, types named in the paper, dosed 104 weeks, study length 141 weeks): 304 mg/kg/day | TD50 (rat, strain Sprague-Dawley, females, by gavage, site: ear duct, lesion: carcinoma, dosed 104 weeks, study length 123 weeks): 18000 mg/kg/day | TD50 (rat, strain Sprague-Dawley, females, by gavage, site: head, lesion: carcinoma, dosed 104 weeks, study length 123 weeks): 5620 mg/kg/day | TD50 (rat, strain Sprague-Dawley, females, by gavage, site: head, lesion: carcinoma, dosed 104 weeks, study length 141 weeks): 2830 mg/kg/day | TD50 (rat, strain Sprague-Dawley, females, by gavage, site: mammary tissue, wider than the gland, lesion: carcinoma, dosed 104 weeks, study length 141 weeks): 1750 mg/kg/day | TD50 (rat, strain Sprague-Dawley, females, by gavage, site: oral cavity, lesion: carcinoma, dosed 104 weeks, study length 123 weeks): 5860 mg/kg/day | TD50 (rat, strain Sprague-Dawley, males, by gavage, site: Zymbal's gland, lesion: carcinoma, dosed 104 weeks, study length 141 weeks): 58400 mg/kg/day | TD50 (rat, strain Sprague-Dawley, males, by gavage, site: all sites, lesion: lymphoma and leukemia, combined, dosed 104 weeks, study length 123 weeks): 8150 mg/kg/day | TD50 (rat, strain Sprague-Dawley, males, by gavage, site: all sites, lesion: lymphoma and leukemia, combined, dosed 104 weeks, study length 141 weeks): 4170 mg/kg/day | TD50 (rat, strain Sprague-Dawley, males, by gavage, site: any site (literature study), lesion: malignant tumor, dosed 104 weeks, study length 123 weeks): 1820 mg/kg/day | TD50 (rat, strain Sprague-Dawley, males, by gavage, site: any site (literature study), lesion: malignant tumor, dosed 104 weeks, study length 141 weeks): 1670 mg/kg/day | TD50 (rat, strain Sprague-Dawley, males, by gavage, site: any site (literature study), lesion: several types, types named in the paper, dosed 104 weeks, study length 123 weeks): 4070 mg/kg/day | TD50 (rat, strain Sprague-Dawley, males, by gavage, site: ear duct, lesion: carcinoma, dosed 104 weeks, study length 123 weeks): 18300 mg/kg/day | TD50 (rat, strain Sprague-Dawley, males, by gavage, site: head, lesion: carcinoma, dosed 104 weeks, study length 123 weeks): 3440 mg/kg/day | TD50 (rat, strain Sprague-Dawley, males, by gavage, site: head, lesion: carcinoma, dosed 104 weeks, study length 141 weeks): 5170 mg/kg/day | TD50 (rat, strain Sprague-Dawley, males, by gavage, site: oral cavity, lesion: carcinoma, dosed 104 weeks, study length 123 weeks): 4440 mg/kg/day | TD50 (rat, strain Sprague-Dawley, males, by gavage, site: oral cavity, lesion: carcinoma, dosed 104 weeks, study length 141 weeks): 5820 mg/kg/day

CC(C)(C)NCC(O)c1cc(O)cc(O)c1 (stereo not given)
TD50 (rat, strain Charles River CD (Sprague-Dawley), females, in feed, site: mesovarium, lesion: leiomyoma, dosed 104 weeks, study length 104 weeks): 410 mg/kg/day

NNCc1ccccc1
TD50 (mouse, strain Swiss albino, females, in drinking water, site: liver, lesion: angiosarcoma, dosed 121 weeks, study length 121 weeks): 252 mg/kg/day (inactive) | TD50 (mouse, strain Swiss albino, females, in drinking water, site: liver, lesion: several types, types named in the paper, dosed 121 weeks, study length 121 weeks): 304 mg/kg/day | TD50 (mouse, strain Swiss albino, females, in drinking water, site: lung, lesion: several types, types named in the paper, dosed 121 weeks, study length 121 weeks): 85.3 mg/kg/day | TD50 (mouse, strain Swiss albino, males, in drinking water, site: liver, lesion: several types, types named in the paper, dosed 100 weeks, study length 100 weeks): 86.2 mg/kg/day | TD50 (mouse, strain Swiss albino, males, in drinking water, site: lung, lesion: adenoma, dosed 100 weeks, study length 100 weeks): 711 mg/kg/day (inactive)
